Source: ChEMBL document CHEMBL1132065, “Synthesis and biological activity of oxo-7H-benzo[e]perimidine-4-carboxylic acid derivatives as potent, nonpeptide corticotropin releasing factor (CRF) receptor antagonists” (Bioorg Med Chem Lett, 1999)

Columns and labels:
[1] = target: T1, Corticotropin-releasing factor receptor 1 (Rattus norvegicus, UniProt P35353); experiment: Antagonistic activity against [125I]-Tyr-ovine CRF binding to Corticotropin releasing factor receptor 1
T1 sequence (P35353 whole entry): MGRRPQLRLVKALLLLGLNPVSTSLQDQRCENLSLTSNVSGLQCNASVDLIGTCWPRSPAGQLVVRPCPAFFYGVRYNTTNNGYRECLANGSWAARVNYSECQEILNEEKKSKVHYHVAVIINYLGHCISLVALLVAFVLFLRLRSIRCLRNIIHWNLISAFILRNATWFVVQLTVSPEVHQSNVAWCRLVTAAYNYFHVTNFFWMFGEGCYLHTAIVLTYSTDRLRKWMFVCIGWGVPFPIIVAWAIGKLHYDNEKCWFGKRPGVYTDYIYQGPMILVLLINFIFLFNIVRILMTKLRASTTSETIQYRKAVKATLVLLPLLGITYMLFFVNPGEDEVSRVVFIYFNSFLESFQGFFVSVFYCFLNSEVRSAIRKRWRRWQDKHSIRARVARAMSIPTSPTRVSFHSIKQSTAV

[2] = target: T2, Corticotropin-releasing factor receptor 2 (Mus musculus, UniProt Q60748); experiment: Antagonistic activity against [125I]-Tyr-ovine CRF binding to Corticotropin releasing factor receptor 2 beta
T2 sequence (Q60748 whole entry): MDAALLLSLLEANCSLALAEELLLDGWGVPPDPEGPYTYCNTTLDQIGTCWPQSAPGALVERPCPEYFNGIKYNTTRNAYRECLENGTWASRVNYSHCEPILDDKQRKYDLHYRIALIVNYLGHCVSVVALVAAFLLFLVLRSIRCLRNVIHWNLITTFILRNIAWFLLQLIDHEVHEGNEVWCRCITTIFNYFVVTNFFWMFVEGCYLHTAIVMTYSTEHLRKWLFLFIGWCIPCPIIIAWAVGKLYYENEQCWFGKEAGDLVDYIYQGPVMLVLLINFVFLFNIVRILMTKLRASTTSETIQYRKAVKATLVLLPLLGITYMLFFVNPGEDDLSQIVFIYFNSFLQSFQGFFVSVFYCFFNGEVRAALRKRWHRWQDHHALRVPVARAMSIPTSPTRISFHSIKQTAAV

[3] = target: T2, Corticotropin-releasing factor receptor 2; experiment: Antagonistic activity against [125I]-Tyr-ovine CRF binding to Corticotropin releasing factor receptor 2 beta (30% inhibition at 100 uM)
[4] = Binding affinity against Galanin receptor; design: species or system Homo sapiens
[5] = Binding affinity to Glp1 receptor using [125I]Glp-1 as radioligand
[6] = target: T3, Neuropeptide Y receptor type 1 (Homo sapiens, UniProt P25929); experiment: Binding affinity against Neuropeptide Y receptor type 1 using [125I]PYY
T3 sequence (P25929 whole entry): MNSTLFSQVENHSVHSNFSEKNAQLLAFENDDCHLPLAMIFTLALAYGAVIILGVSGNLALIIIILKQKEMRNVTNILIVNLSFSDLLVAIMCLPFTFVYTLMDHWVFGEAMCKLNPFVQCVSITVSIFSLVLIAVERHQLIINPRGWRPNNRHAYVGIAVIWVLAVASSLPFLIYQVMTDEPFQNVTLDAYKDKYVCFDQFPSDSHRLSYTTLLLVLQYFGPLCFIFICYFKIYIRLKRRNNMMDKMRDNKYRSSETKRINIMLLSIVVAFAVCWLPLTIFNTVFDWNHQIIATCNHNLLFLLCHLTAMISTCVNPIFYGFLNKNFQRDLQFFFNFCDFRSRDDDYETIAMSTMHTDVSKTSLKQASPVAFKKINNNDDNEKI

[7] = target: 5-hydroxytryptamine receptor 6 (Homo sapiens, UniProt P50406); experiment: Binding affinity against 5-hydroxytryptamine 6 receptor
Sequence of 5-hydroxytryptamine receptor 6 (P50406 whole entry): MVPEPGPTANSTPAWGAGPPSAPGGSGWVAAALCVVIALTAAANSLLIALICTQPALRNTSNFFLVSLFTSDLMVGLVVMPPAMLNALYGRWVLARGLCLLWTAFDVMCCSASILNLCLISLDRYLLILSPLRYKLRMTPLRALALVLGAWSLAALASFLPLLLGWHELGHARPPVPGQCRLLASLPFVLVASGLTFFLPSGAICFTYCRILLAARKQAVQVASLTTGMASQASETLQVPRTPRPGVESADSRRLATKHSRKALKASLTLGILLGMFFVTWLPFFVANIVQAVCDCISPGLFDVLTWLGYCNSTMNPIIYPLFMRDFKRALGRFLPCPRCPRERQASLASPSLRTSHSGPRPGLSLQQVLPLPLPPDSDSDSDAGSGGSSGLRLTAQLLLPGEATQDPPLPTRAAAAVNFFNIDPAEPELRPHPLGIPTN

[8] = target: 5-hydroxytryptamine receptor 7 (Homo sapiens, UniProt P34969); experiment: Binding affinity against 5-hydroxytryptamine 7 receptor
Sequence of 5-hydroxytryptamine receptor 7 (P34969 whole entry): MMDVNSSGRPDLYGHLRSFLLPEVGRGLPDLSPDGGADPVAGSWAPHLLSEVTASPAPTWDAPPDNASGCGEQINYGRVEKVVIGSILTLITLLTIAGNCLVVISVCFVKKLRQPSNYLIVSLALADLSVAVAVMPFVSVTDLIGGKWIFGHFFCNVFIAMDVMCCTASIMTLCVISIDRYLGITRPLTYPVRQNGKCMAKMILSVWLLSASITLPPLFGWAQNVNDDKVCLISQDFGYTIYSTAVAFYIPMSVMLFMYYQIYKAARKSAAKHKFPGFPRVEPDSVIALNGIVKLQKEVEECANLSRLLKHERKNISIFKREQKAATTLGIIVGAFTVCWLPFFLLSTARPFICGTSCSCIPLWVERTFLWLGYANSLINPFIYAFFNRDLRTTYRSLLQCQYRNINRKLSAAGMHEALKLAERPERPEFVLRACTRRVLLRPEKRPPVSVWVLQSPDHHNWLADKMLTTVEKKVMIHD

[9] = Binding affinity against Glucagon receptor using [125I]glucagon
D(2) dopamine receptor = D(2) dopamine receptor (Homo sapiens, UniProt P14416); experiment: Binding affinity against dopamine D2 receptor
Sequence of D(2) dopamine receptor (P14416 whole entry): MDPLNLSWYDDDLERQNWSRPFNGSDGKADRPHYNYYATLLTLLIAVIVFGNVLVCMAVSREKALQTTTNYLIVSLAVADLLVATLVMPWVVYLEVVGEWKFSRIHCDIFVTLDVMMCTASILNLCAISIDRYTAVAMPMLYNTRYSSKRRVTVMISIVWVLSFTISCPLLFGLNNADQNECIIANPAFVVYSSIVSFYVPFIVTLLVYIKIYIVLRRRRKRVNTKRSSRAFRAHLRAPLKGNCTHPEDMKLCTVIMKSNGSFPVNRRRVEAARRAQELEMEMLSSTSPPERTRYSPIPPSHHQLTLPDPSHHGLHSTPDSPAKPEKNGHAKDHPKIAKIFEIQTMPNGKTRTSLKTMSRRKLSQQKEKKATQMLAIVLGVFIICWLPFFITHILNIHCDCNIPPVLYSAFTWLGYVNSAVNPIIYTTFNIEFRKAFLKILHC

Row | Ki [1] [nM] | Ki [2] [nM] | SMILES | further results
1 | > 10000 | > 10000 | NCCNC(=O)c1ccc2c3c(ncnc13)-c1ccccc1C2=O | –
2 | 2050 | 650 | NCCNC(=O)c1c2c(c3c(O)c4ccccc4c4ncnc1c34)=NCCN2 | –
3 | 270 | 830 | NCCNC(=O)c1c2c(c3c(O)c4ccccc4c4ncnc1c34)=N[C@H]1CCCC[C@H]1N2 | –
4 | – | – | O=C(O)c1ccc2c3c(ncnc13)-c1ccccc1C2=O | Ki [3]: > 100000 nM
5 | 180 | 86 | N[C@@H]1CCCC[C@H]1NC(=O)c1c2c(c3c(O)c4ccccc4c4ncnc1c34)=N[C@H]1CCCC[C@@H]1N2 | –
6 | 200 | 75 | NCCNC(=O)c1c2c(c3c4c(ncnc14)-c1ccccc1C3=O)N[C@H]1CCCC[C@@H]1N2 | –
7 | 110 | 20 | N[C@H]1CCCC[C@@H]1NC(=O)c1c2c(c3c4c(ncnc14)-c1ccccc1C3=O)N[C@@H]1CCCC[C@H]1N2 | Ki [4]: > 10000 nM; Ki [5]: > 10000 nM; Ki [6]: 4200 nM; Ki [7]: > 10000 nM; Ki [8]: 1600 nM; Ki [9]: > 10000 nM; Ki (D(2) dopamine receptor): 3200 nM
8 | – | > 10000 | CN(C)C(=O)c1ccc2c3c(ncnc13)-c1ccccc1C2=O | –
9 | > 10000 | > 10000 | N[C@H]1CCCC[C@H]1NC(=O)c1ccc2c3c(ncnc13)-c1ccccc1C2=O | –
10 | > 10000 | > 10000 | N[C@@H]1CCCC[C@H]1NC(=O)c1ccc2c3c(ncnc13)-c1ccccc1C2=O | –
11 | 160 | 45 | NCCNC(=O)c1c2c(c3c(O)c4ccccc4c4ncnc1c34)=N[C@@H]1CCCC[C@H]1N2 | –
